Measurements taken from PubChem BioAssay (NCI).
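Cells were grown in 96-well plates and exposed to each compound for 48 hours at five concentrations; endpoints were interpolated linearly between bracketing concentrations, or set to the highest concentration if not reached. GI50 = concentration required for 50% inhibition of growth. TGI denotes the concentration required for complete inhibition of growth.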

What was measured:
Experiment in all cases: growth of human tumour cells (NCI), 48 h
EKVX NSCLC = test system: EKVX NSCLC
IGROV1 ovarian = test system: IGROV1 ovarian
MALME-3M melanoma = test system: MALME-3M melanoma
NCI-H23 lung = test system: NCI-H23 lung
NCI-H522 lung = test system: NCI-H522 lung
NCI/ADR-RES ovarian = test system: NCI/ADR-RES ovarian
OVCAR-3 ovarian = test system: OVCAR-3 ovarian
PC-3 prostate = test system: PC-3 prostate
SK-OV-3 ovarian = test system: SK-OV-3 ovarian
SNB-75 CNS = test system: SNB-75 CNS

SMILES	TGI (EKVX NSCLC) [µM]	TGI (IGROV1 ovarian) [µM]	TGI (MALME-3M melanoma) [µM]	TGI (NCI-H23 lung) [µM]	TGI (NCI-H522 lung) [µM]	TGI (NCI/ADR-RES ovarian) [µM]	TGI (OVCAR-3 ovarian) [µM]	TGI (PC-3 prostate) [µM]	TGI (SK-OV-3 ovarian) [µM]	TGI (SNB-75 CNS) [µM]	GI50 (OVCAR-3 ovarian) [µM]	GI50 (SK-OV-3 ovarian) [µM]	GI50 (SNB-75 CNS) [µM]	GI50 (MALME-3M melanoma) [µM]	GI50 (PC-3 prostate) [µM]	GI50 (EKVX NSCLC) [µM]	GI50 (IGROV1 ovarian) [µM]	GI50 (NCI-H23 lung) [µM]	GI50 (NCI-H522 lung) [µM]	GI50 (NCI/ADR-RES ovarian) [µM]
C[n+]1cccc(/C=C/c2ccc3cccc(O)c3n2)c1	> 100	> 100	93.5	> 100	92.6	> 100	> 100	> 100	> 100	> 100										
CC(C)CNc1nc(N)[nH]c(=O)c1NC=O	> 100	> 100	> 100	> 100	> 100	> 100	> 100	> 100	> 100	> 100										
COc1ccc(CNc2nc(NCc3ccc(OC)cc3)nc(NC(C)C)n2)cc1	93.2	> 100	22.8	30.8	10.6	18.9	10.3	23.9	> 100	> 100										
NCS(=O)(=O)O	> 100	> 100	> 100	> 100	> 100	> 100	> 100	> 100	> 100	> 100										
Cn1cnc([N+](=O)[O-])c1SCC(=O)O	> 100	> 100	> 100	> 100	> 100	> 100	> 100	> 100	> 100	> 100										
CCOC(=O)c1c2c(c(O)c3ccccc3c(O)n(-c3ccc(C)cc3)c1C)C(=O)C=CC2=O	85.5	> 100	37.4	52	41.7	48.7	35.2	> 100	89.7	43.6										
COc1cnc2c(c1)C(=O)c1c-2n(CCCN2CCNCC2)c(=O)c2cc(Cl)ccc12							2.83		2.51	1.69	1.43	1.16	0.291							
N=C(N)c1ccc(-c2ccc(-c3ccc(Cl)cn3)s2)cc1			3.14					3.17	3.49			1.83		1.68	1.65					
CCOC(=O)C1=C(C)N(C)C(=S)NC1c1cccc(O)c1 (configuration not stated)	93.6	> 100		> 100	> 100	54.9	> 100	> 100	> 100	> 100										
CC(C)(C)C1CCC2(CC1)CCN(CCCN1CCOCC1)CC2	> 100	> 100	39.4	> 100	> 71.3	> 100	> 100	> 100	> 100	> 52.4										
O=C(c1cc(Br)ccc1O)c1cc(Br)ccc1O	30.3	27.8	31.6	35.4	33	44.7	29.2	30.8	35.8	29.9										
COc1cc2ccc1-c1cc(ccc1O)CC1c3cc4c(cc3CCN1C)Oc1c(OC)cc3c(c1O4)C(C2)N(C)CC3 (configuration not stated)	4.57	4.35	3.48	3.9	3.2		3.93			3.52										
CN(C)CCNC(=O)c1cccc2nc3c4ccccc4c4ccccc4c3nc12	11	12.3	3.6	3.41	23.4		7	3.05	13.4	8.85										
C[C@H]1CCC/C=C/[C@@H]2C[C@H](O)C[C@H]2[C@H](O)[C@@H](S(=O)CCN)CC(=O)O1 (some centres not stated)	> 100		0.382	1.74	0.926	0.137				> 25.1	0.0495	0.0245	< 0.0231	< 0.0138	0.0442	0.0891	0.166	0.044	0.0986	0.0196
Cc1c2ccnc(-c3ccccc3)c2cc2c1[nH]c1ccccc12	12.5	21.4	9.31	19.9	27.7	6.36	8.99		9.39	8.16										
COc1cc2c(cc1OC)C(Cl)C(c1ccc(Cl)cc1)=C2Cl (configuration not stated)	59.7	48.3	56.8	41.1	32.5		30.1		57.5	36.2										
O=C(CC1(O)C(=O)Nc2ccc(Br)cc21)c1ccc(C(=O)NCC2CCC3(CC2)OOC2(CCCCC2)OO3)cc1 (configuration not stated)		11.6	6.63	32	1.37	69.3	10.4	22.3	31.3		2.13	10.4		2.47	2.64		1.52	6.43	0.336	15.1
Cc1cc(=O)[nH]c(NN2C(Cl)C(=O)C2c2cccc([N+](=O)[O-])c2)n1 (configuration not stated)	> 100			52.4			32.3			> 100										
Cc1ccc(C)c(/C(=N\N=C(N)N)C2CC2)c1	> 100	> 100	> 100	66.7	> 100	> 100	> 100	> 100	> 100	> 100										
COc1ccc(-n2c3c(c4cc(O)ccc42)C(=O)c2ccccc2C3=O)cc1	43	30.8	> 100	> 100	> 100	24.9	27.2	87.3	2.73											
Oc1cc(O)cc(/C=C/c2ccc(O)c(O)c2)c1	> 100	32.1	> 100	40.2	7.17	51	> 100		47.7	51.7										
CN(C)c1ccc(C2CC(=O)C(C#N)=C(c3ccccc3)NN2C)cc1 (configuration not stated)			> 100	> 100	28.5				> 100	7.59										
CC[C@H](Nc1nc(N)nc(N)c1Cl)c1nc2cccc(NCc3ccc(C(=O)NO)cc3)c2c(=O)n1-c1ccccc1	3.78		4.4		3.6	> 100		3.7						1.36	1.53	1.75			1.29	12.4
Cc1ncc(CO)c(CN)c1O	> 100	> 100	> 100	> 100	> 100	> 100	> 100	> 100	> 100											
O=C1c2ccccc2C(=O)c2c(NCCNC(=O)C3CCCN3)ccc(NCCNC(=O)C3CCCN3)c21 (configuration not stated)	> 100	> 100	> 100	> 100	65.2	> 100	> 100	> 100	> 100	> 100										
